Like-named read-outs stand apart in the source and are kept apart here.
Legend:
[1] = biological target: FLNA pentapeptide of SEQ ID NO: 1 (Bn-VAKGL) (Homo sapiens, UniProt P21333); test: FITC-NLX-based FLNA screening assay (inhibition of FITC-naloxone binding to Bn-VAKGL on streptavidin plates); details: 10 nM FITC-NLX
mu opiate receptor (MOR) = test: MOR agonist activity using [35S]GTPγS binding assay in striatal membranes; type: biochemical; details: for MOR agonist activity ([35S]GTPγS binding), FLNA-Binding Compound as Agonist 1 μM + BFNA: 1 μM compound + 1 μM β-funaltrexamine
Outline: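 Striatal membranes (200 μg) were preincubated 5 min at 30 °C in HEPES pH 7.5 with 100 mM NaCl, 1 mM MgCl2 and 0.5 nM [35S]GTPγS, then 5 min more with 0.1–10 μM compound. Gαo was immunoprecipitated and bound radioactivity counted by scintillation.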

[2] = 0.1 μM compound relative to DAMGO
[3] = 1 μM compound + BFNA relative to DAMGO + BFNA
[4] = 1 μM compound relative to DAMGO
[5] = read-out: Percent Binding Inhibition, FLNA-binding compound 0.01 μM
[6] = read-out: Percent Binding Inhibition, FLNA-binding compound 0.1 μM
[7] = read-out: Percent Binding Inhibition, FLNA-binding compound 1 μM
[8] = Series C-2, 0.1 μM compound, relative to DAMGO
[9] = Series C-2, 0.1 μM compound, [35S]GTPγS binding to Gαo, striatal membranes
[10] = Series C-2, 1 μM compound + 1 μM β-FNA
[11] = Series C-2, 1 μM compound + β-FNA, relative to DAMGO + BFNA
[12] = Series C-2, 1 μM compound, relative to DAMGO
[13] = Series C-2, 1 μM compound, [35S]GTPγS binding to Gαo, striatal membranes
[14] = Series C-1, 0.1 μM compound, relative to DAMGO
[15] = Series C-1, 0.1 μM compound, [35S]GTPγS binding to Gαo, striatal membranes
[16] = Series C-1, 1 μM compound + 1 μM β-FNA
[17] = Series C-1, 1 μM compound + β-FNA, relative to DAMGO + BFNA
[18] = Series C-1, 1 μM compound, relative to DAMGO
[19] = Series C-1, 1 μM compound, [35S]GTPγS binding to Gαo, striatal membranes
[20] = FLNA-binding compound 0.01 μM, read-out: Percent Binding Inhibition
[21] = FLNA-binding compound 0.1 μM, read-out: Percent Binding Inhibition
[22] = FLNA-binding compound 1 μM, read-out: Percent Binding Inhibition

Row | Structure (SMILES) | inhibition at 0.01 µM [1, 5] [%] | inhibition at 0.1 µM [1, 6] [%] | inhibition at 1 µM [1, 7] [%] | % DAMGO (0.1 μM) (mu opiate receptor (MOR); [8]) [%] | MOR agonist activity, percent [35S]GTPγS binding at the stated compound concentration (mu opiate receptor (MOR); [9]) [%] | MOR agonist activity, percent [35S]GTPγS binding at the stated compound concentration (mu opiate receptor (MOR); [10]) [%] | % DAMGO + BFNA (mu opiate receptor (MOR); [11]) [%] | % DAMGO (1 μM) (mu opiate receptor (MOR); [12]) [%] | MOR agonist activity, percent [35S]GTPγS binding at the stated compound concentration (mu opiate receptor (MOR); [13]) [%] | inhibition at 0.01 µM [1, 20] [%] | inhibition at 0.1 µM [1, 21] [%] | inhibition at 1 µM [1, 22] [%] | also measured
1 | COc1ccc(OCC(O)CN2CCCc3ccccc32)cc1 (stereo not drawn) [Compound A0067] | – | – | – | – | – | – | – | – | – | – | – | – | Percent Binding Inhibition ([1]; FLNA-binding compound 0.01 μM): 32.7%; Percent Binding Inhibition ([1]; FLNA-binding compound 0.1 μM): 39.1%; Percent Binding Inhibition ([1]; FLNA-binding compound 1 μM): 44.3%; MOR agonist activity ([35S]GTPγS binding), FLNA-Binding Compound as Agonist 0.1 μM (mu opiate receptor (MOR); 0.1 μM compound): 170.8%; % DAMGO (0.1 μM) (mu opiate receptor (MOR); [2]): 99.2%; MOR agonist activity ([35S]GTPγS binding), FLNA-Binding Compound as Agonist 1 μM (mu opiate receptor (MOR); 1 μM compound): 254.4%; MOR agonist activity ([35S]GTPγS binding), FLNA-Binding Compound as Agonist 1 μM + BFNA (mu opiate receptor (MOR)): 33.9%; % DAMGO + BFNA (mu opiate receptor (MOR); [3]): 98.3%; % DAMGO (1 μM) (mu opiate receptor (MOR); [4]): 115.8%
2 | COc1c2c(cc3c1C(CC(=O)Cc1ccc(C#N)cc1)[N+](C)(C)CC3)OCO2 (stereo not drawn) [Compound B0012] | 39.4 | 46.9 | 51.7 | – | – | – | – | – | – | – | – | – | % DAMGO (0.1 μM) (mu opiate receptor (MOR); Series B, 0.1 μM compound, relative to DAMGO): 97.8%; MOR agonist activity, percent [35S]GTPγS binding at the stated compound concentration (mu opiate receptor (MOR); Series B, 0.1 μM compound, [35S]GTPγS binding to Gαo, striatal membranes): 167.4%; MOR agonist activity, percent [35S]GTPγS binding at the stated compound concentration (mu opiate receptor (MOR); Series B, 1 μM compound + 1 μM β-FNA): 145.1%; % DAMGO + BFNA (mu opiate receptor (MOR); Series B, 1 μM compound + β-FNA, relative to DAMGO + BFNA): 278.5%; % DAMGO (1 μM) (mu opiate receptor (MOR); Series B, 1 μM compound, relative to DAMGO): 79.4%; MOR agonist activity, percent [35S]GTPγS binding at the stated compound concentration (mu opiate receptor (MOR); Series B, 1 μM compound, [35S]GTPγS binding to Gαo, striatal membranes): 212.0%
3 | COc1ccc(S(=O)(=O)N2CCOC23CCN(C)CC3)cc1 [Compound C0088M] | 40.1 | 52.4 | 56.1 | 160.5 | 276.3 | 177.1 | 513.3 | 161.7 | 355.3 | – | – | – | –
4 | O=S(=O)(c1ccc(F)cc1)N1CCC2(CC1)OCCN2S(=O)(=O)c1ccc(F)cc1 [Compound C0029] | 38.6 | 43.2 | 50.5 | – | – | – | – | – | – | – | – | – | % DAMGO (0.1 μM) (mu opiate receptor (MOR); [14]): 91.2%; Concentration of FLNA-Binding Compound as Agonist 0.1 μM (mu opiate receptor (MOR); [15]): 175.4%; Concentration of FLNA-Binding Compound as Agonist 1 μM + BFNA (mu opiate receptor (MOR); [16]): 16.6%; % DAMGO + BFNA (mu opiate receptor (MOR); [17]): 37.8%; % DAMGO (1 μM) (mu opiate receptor (MOR); [18]): 113.1%; Concentration of FLNA-Binding Compound as Agonist 1 μM (mu opiate receptor (MOR); [19]): 308.8%
5 | CCCCN1CCC2(CC1)OCCN2S(=O)(=O)c1ccc(OC)cc1 [Compound C0102M] | – | – | – | 78.6 | 131.8 | 150.4 | 316.6 | 122.4 | 272.0 | 52.3 | 53.1 | 56.6 | –
6 | CC(=O)c1ccc(S(=O)(=O)N2CCOC23CCN(CC2CC2)CC3)cc1 [Compound C0095M] | – | – | – | 107.4 | 189.1 | 107.7 | 489.5 | 88.8 | 224.6 | 40.1 | 46.6 | 50.5 | –
7 | CC1CCC(C(C)C)C(OCC(O)CN2CCN(CCCN3CCOCC3)CC2)C1 (stereo not drawn) [Compound A0026] | – | – | – | – | – | – | – | – | – | 36.4 | 42.4 | 49.2 | MOR agonist activity ([35S]GTPγS binding), FLNA-Binding Compound as Agonist 0.1 μM (mu opiate receptor (MOR); 0.1 μM compound): 140.7%; % DAMGO (0.1 μM) (mu opiate receptor (MOR); [2]): 79.7%; MOR agonist activity ([35S]GTPγS binding), FLNA-Binding Compound as Agonist 1 μM (mu opiate receptor (MOR); 1 μM compound): 179.8%; MOR agonist activity ([35S]GTPγS binding), FLNA-Binding Compound as Agonist 1 μM + BFNA (mu opiate receptor (MOR)): 120.8%; % DAMGO + BFNA (mu opiate receptor (MOR); [3]): 459.3%; % DAMGO (1 μM) (mu opiate receptor (MOR); [4]): 70.7%
8 | O=S(=O)(c1ccc(OC(F)(F)F)cc1)N1CCC2(CC1)OCCN2S(=O)(=O)c1ccc(OC(F)(F)F)cc1 [Compound C0006] | 41.6 | 46.8 | 51.8 | – | – | – | – | – | – | – | – | – | % DAMGO (0.1 μM) (mu opiate receptor (MOR); [14]): 70.6%; Concentration of FLNA-Binding Compound as Agonist 0.1 μM (mu opiate receptor (MOR); [15]): 121.5%; Concentration of FLNA-Binding Compound as Agonist 1 μM + BFNA (mu opiate receptor (MOR); [16]): 4.6%; % DAMGO + BFNA (mu opiate receptor (MOR); [17]): 7.2%; % DAMGO (1 μM) (mu opiate receptor (MOR); [18]): 73.8%; Concentration of FLNA-Binding Compound as Agonist 1 μM (mu opiate receptor (MOR); [19]): 204.0%
